This is an account of results in patent US12435059B2, “AMP-activated protein kinase inhibitors and methods of making and using the same” (The Regents of the University of Colorado, priority 2019, dated 2025).

For orientation: IC50 means the concentration that inhibits the measured activity by half. In general, EC50 refers to the midpoint of the concentration-response curve. As a reminder, the inhibition is the share of the control response that was lost under treatment.

Assay [1] concerns the target T1, AMPKα1 (Homo sapiens (Human), UniProt Q13131). Put plainly: LANCE Eu TR-FRET recombinant kinase assay, AMPK(α1). It counts as biochemical. The method, then: (§1) Assays were performed at 25° C. in a reaction mixture consisting of 2.5 μL serially diluted inhibitor solution, 2.5 μL kinase, 2.5 μL ATP and 2.5 μL substrate. Reagents were incubated for 1 hr before the reaction was halted through the addition of EDTA (10 mM) after which Eu anti-phospho-CREB (Ser133) antibody (PerkinElmer) was added at a final concentration of 2 nM for 1 hr. […] (n=3)).
Target sequence in this assay (Q13131 whole entry, looked up): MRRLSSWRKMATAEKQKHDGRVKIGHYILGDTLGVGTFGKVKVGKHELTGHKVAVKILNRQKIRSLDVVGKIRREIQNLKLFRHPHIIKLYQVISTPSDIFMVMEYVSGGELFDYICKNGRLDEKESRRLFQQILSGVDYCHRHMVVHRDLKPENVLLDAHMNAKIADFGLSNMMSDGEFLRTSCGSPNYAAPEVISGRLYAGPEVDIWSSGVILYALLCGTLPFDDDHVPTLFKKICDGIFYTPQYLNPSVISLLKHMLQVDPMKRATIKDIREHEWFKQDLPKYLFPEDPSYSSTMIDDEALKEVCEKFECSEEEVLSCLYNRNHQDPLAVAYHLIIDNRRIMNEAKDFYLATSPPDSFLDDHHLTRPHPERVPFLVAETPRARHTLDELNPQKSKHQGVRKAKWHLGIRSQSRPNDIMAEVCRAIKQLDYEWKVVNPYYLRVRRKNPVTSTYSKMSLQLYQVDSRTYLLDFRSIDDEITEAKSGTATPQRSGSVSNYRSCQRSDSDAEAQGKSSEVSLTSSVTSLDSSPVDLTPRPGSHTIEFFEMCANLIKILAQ
Target sequence in this assay (Q9Y478 whole entry partner, looked up): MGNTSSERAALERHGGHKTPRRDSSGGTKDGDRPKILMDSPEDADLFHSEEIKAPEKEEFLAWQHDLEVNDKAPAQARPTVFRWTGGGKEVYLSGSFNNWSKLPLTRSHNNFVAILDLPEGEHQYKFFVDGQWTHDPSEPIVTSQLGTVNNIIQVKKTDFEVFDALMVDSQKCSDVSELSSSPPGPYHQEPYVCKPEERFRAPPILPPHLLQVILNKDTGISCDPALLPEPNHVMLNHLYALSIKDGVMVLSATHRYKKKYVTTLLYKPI
Target sequence in this assay (P54619 whole entry partner, looked up): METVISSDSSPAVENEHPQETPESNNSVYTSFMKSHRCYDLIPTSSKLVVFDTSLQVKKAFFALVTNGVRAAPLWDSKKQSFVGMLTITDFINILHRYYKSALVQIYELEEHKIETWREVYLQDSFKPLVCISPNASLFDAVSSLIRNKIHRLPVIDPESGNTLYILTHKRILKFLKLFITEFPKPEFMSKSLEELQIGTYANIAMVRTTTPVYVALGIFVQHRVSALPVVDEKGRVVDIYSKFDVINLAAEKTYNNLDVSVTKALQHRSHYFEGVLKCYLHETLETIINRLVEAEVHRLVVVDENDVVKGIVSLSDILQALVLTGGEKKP

Assay [2] has as its target AMPK(α2) (Homo sapiens (Human), UniProt P54646). Put plainly: LANCE Eu TR-FRET recombinant kinase assay, AMPK(α2). The format is biochemical. The method, then:
as §1
In general terms: Time-resolved FRET reads energy transfer from a long-lived donor to a nearby acceptor.

Assay [3] relates to cellular AMPK. Put plainly: p-ACC(Ser79) ELISA in K562 cell lysates (glucose-free media, 2-DG). The format is cell-based. As to conditions: for Relative p-ACC(Ser79) level: K562, glucose-free media, 2-DG 12 mM, compound 5 μM single dose, relative to DMSO control; for p-ACC level reduction across concentration range compared with sunitinib: K562, dose response, FIG. 2B. The method, then: FIGS. 2A and 2B are a series of graphs showing the effects of compounds of the present disclosure on cellular levels of p-ACC(Ser79) in K562 cells. FIG. 2A Quantitative ELISA determination of p-ACC(Ser79) levels in K562 lysates (1.0 mg mL^−1 total protein) following growth in glucose-free media for 24 h, 2-DG (12 mM) treatment for 1 h followed by treatment with inhibitor compounds at 5.0 μM for 2 h. Relative p-ACC levels are reported as a percentage of levels resultant from DMSO control treatment. […] Cells were collected, washed with PBS and lysed on ice in lysis buffer containing 1% Triton X (Cell Signaling). Lysates were someated (1×5 seconds) and centrifuged for 10 minutes at 10,000 rpm and 4° C., and the protein concentration in supernatants was determined by Lowry assay. Lysates were diluted with ELISA PathScan® sample diluent to a final volume of 100 μL and protein concentration of 1.0 mg/ml prior to use. The concentration of p-ACC (Ser79) was determined using an enzyme-linked immunosorbent assay according to recommended protocol (Cell Signaling, ELISA PathScan® phospho-Acetyl-CoA Carboxylase (Ser79)) and expressed as a relative percentage of the DMSO control.
The AMPK substrate ACC is used as a biomarker for the relative activity of AMPK, and the levels of p-ACC(Ser79) were measured by ELISA in the absence or presence of the compounds to determine the compounds' effects on cellular AMPK activity. The presence of total AMPK, p-AMPK, total ACC, and p-ACC was measured by Western blot in a panel of leukemic cell lines grown in glucoe competent or glucose-free media. […] The cell lysates from K562 cells grown in glucose-free media in the presence 2-DG and treated with compounds of the present disclosure were analyzed by the p-ACC(Ser79) ELISA to determine the effect of the compounds on cellular AMPK activity.

For assay [4], the system named is K562 cells. As to the kind of experiment: MTS cell viability assay in K562 cells. The format is cell-based. As to conditions: Homo sapiens; K562, RPMI-1640; Table 2 head prints 24 h, method and FIG. 3A legend 72 hours. The method, then:
(§2) The cells were incubated with inhibitors for 24 hours, before the plates were equilibrated to room temperature and 100 μL CellTiter-Glo reagent was added. […] Luminescent signal was plotted against the inhibitor log-dose and evaluated by a non-linear regression to determine half-maximal effect concentration (EC50) values, where possible.
An MTS assay was utilized to assess the effect of inhibitors on K562 viability.

Assay [5] deals with K562 cells. Put plainly: CellTiter-Glo cell viability assay in K562 cells (glucose-free media). It counts as cell-based. As to conditions: Homo sapiens, read-out: EC50 CellTiter Glo 24 h. The method, then:
as §2
(§3) In order to increase the reliance of the cells on AMPK function, assays were needed that could be performed under glucose-free conditions. Therefore in order to elucidate the mechanism of action of the AMPK inhibitors, a CellTiter-Glo cell viability assay (FIG. 3B), which provide a readout proportional to ATP concentration, and thus, cellular viability, as well as a CellTox green cellular toxicity assay (FIG. 3C and FIG. 3D), which contain a dye that fluoresces upon DNA-binding in cells with impraied membrane integrity due to cytotoxicity were performed in K562 cells grown in glucose-free media. The results are summarized in Table 2 (values are the mean±S.D. (n=3)).

Assay [6] concerns K562 cells. Put plainly: CellTox green cellular toxicity assay in K562 cells (glucose-free media). It counts as cell-based. As to conditions: for EC50: Homo sapiens.
Description: Fluorescence was plotted against inhibitor log-dose and evaluated by a non-linear regression to determine half-maximal effect concentration (EC50) values, where possible.
as §3

In assay [7] the target is KDR (Homo sapiens (Human), UniProt P35968). As to the kind of experiment: LanthaScreen Eu TR-FRET KDR competitive binding assay. As to conditions: read-out: IC50 (nM) KDR; mean±S.D. (n=3); competitive binding.
Chain of KDR (P35968 20-1356): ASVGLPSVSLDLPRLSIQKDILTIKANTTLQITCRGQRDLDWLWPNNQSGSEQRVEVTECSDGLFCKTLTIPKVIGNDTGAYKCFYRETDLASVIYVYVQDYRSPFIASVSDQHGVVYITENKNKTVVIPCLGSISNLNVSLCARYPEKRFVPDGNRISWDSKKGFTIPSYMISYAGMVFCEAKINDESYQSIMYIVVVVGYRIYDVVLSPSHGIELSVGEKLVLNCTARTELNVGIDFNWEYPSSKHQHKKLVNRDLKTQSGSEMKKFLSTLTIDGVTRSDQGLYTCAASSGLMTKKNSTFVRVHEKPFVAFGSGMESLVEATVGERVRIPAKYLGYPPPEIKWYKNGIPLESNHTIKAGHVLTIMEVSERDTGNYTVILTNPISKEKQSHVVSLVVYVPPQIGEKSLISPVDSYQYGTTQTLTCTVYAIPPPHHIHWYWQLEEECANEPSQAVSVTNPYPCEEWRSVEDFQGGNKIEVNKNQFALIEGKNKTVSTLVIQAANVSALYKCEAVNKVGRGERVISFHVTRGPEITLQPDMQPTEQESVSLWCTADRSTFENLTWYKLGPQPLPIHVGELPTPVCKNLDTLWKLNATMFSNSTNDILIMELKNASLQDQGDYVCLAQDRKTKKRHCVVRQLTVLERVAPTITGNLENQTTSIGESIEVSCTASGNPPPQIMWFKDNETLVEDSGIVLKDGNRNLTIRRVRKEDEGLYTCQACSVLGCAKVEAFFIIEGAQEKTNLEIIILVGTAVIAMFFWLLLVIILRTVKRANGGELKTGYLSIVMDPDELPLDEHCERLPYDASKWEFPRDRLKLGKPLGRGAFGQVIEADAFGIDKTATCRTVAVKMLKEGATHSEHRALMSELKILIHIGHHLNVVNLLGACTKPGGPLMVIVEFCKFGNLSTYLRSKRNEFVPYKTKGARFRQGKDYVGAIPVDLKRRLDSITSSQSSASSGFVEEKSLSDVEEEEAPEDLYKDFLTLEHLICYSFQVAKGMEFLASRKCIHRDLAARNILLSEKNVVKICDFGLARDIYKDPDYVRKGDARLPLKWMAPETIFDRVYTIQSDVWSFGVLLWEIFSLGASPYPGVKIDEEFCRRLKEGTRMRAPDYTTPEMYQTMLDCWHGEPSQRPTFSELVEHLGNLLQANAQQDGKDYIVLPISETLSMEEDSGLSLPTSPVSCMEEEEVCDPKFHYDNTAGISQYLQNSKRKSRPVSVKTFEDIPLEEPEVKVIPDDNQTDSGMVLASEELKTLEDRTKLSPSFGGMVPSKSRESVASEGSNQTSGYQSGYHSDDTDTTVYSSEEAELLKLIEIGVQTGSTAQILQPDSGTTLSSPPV
Assay [8] concerns the target 468 kinases (Homo sapiens, UniProt Q14004). Put plainly: biochemical. As to conditions: read-out: % Inhibition @ 100 nM, CDC2L5. The format is binding.
Assay [9] has as its target BTK (Homo sapiens (Human), UniProt Q06187). As to the kind of experiment: Kinome binding analysis at 100 nM, BTK.
Assay [10] has as its target T1, AMPKα1. As to conditions: purified AMPK protein; read-out: AMPKα1 IC50, 32P radioactivity assay; cited from earlier work.
Target sequence in this assay (Q13131 whole entry): as the sequence (Q13131 whole entry, looked up) above
Target sequence in this assay (Q9Y478 whole entry partner): as the sequence (Q9Y478 whole entry partner, looked up) above
Target sequence in this assay (P54619 whole entry partner): as the sequence (P54619 whole entry partner, looked up) above
Where [11] appears, read: read-out: EC50 CellTox Green 48 h, 48 h.

Where two headings read alike, the source gives them in different places.

Chain of AMPK(α2) (P54646 whole entry, looked up): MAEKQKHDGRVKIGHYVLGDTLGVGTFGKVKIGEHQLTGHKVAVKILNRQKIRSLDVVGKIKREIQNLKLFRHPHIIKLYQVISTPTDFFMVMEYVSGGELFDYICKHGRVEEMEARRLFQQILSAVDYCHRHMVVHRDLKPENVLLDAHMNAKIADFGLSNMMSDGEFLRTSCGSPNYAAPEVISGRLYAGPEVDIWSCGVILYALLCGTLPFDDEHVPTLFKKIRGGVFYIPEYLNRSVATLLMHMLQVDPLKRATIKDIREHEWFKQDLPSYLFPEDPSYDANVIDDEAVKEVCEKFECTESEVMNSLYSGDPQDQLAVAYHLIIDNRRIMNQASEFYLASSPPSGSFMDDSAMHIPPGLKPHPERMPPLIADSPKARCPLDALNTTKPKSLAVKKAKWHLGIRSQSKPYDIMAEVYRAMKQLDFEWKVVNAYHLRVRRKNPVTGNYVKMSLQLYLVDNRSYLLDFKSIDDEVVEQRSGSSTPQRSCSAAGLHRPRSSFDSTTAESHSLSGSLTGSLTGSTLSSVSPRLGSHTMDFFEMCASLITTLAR
Chain of AMPK(α2) (Q9Y478 whole entry partner, looked up): as the sequence (Q9Y478 whole entry partner, looked up) above
Chain of AMPK(α2) (P54619 whole entry partner, looked up): as the sequence (P54619 whole entry partner, looked up) above
Chain of BTK (Q06187 whole entry): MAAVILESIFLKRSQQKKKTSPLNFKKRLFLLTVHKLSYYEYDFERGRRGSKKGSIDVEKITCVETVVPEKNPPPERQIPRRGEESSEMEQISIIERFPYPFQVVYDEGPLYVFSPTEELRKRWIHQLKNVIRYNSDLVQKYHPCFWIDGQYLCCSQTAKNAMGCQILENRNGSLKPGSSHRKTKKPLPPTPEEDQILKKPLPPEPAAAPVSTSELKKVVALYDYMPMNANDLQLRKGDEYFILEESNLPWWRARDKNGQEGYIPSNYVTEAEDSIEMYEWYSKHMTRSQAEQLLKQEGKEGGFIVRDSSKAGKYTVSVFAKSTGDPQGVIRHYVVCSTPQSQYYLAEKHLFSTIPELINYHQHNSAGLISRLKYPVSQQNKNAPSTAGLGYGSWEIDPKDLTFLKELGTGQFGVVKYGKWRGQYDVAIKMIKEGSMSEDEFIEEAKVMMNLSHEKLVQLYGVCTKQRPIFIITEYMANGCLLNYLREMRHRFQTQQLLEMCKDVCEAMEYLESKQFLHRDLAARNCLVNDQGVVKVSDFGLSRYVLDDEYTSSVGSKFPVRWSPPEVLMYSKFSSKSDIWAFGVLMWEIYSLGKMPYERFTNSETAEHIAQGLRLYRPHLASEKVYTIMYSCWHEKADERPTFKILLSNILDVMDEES

For the compound `CCN(CC)CCNC(=O)c1c(C)[nH]c(/C=C2\C(=O)Nc3ccc(CCC#N)cc32)c1C` [Compound No. 15, (Z)-5-((5-(2-cyanoethyl)-2-oxoindolin-3-ylidene)methyl)-N-(2-(diethylamino)ethyl)-2,4-dimethyl-1H-pyrrole-3-carboxamide], the IC50 in assay [1] (mean±S.D. (n=3), ATP 8 μM, read-out: IC50 (nM) AMPK(α1)) amounted to 164 ± 10 nM; in [2] (mean±S.D. (n=3), ATP 20 μM), 32.4 ± 7.8 nM; in [7], 1330 ± 140 nM. In addition, the “Relative p-ACC(Ser79) level” value in [3] was 34.1 % of control. The concentration for a half-maximal effect (EC50) in assay [4] stood at 14.8 ± 0.22 µM; in [5] it was 17.8 ± 0.78 µM; in [6] (setting [11]) it was 13.6 ± 1.07 µM.

On to `CCN(CC)CCNC(=O)c1c(C)[nH]c(/C=C2\C(=O)Nc3ccc(F)cc32)c1C` [Sunitinib, (Z)—N-(2-(Diethylamino)ethyl)-5-((5-fluoro-2-oxoindolin-3-ylidene)methyl)-2,4-dimethyl-1H-pyrrole-3-carboxamide, reference compound], for which, in assay [6] (24 h, at 50 μM), the “CellTox Green 24 h % inhibition at 50 μM” value is reported as 61% at 50 μM. Moreover, the inhibition at 0.1 µM in assay [8] is 49%; in assay [9] (read-out: Percentage inhibition at 100 nM, BTK) it was 91.3%. In addition, the “BTK inhibition, in words” value in [9] (100 nM) is listed as “strongly inhibited”.

For the compound `CCN(CC)CCNC(=O)c1c(C)[nH]c(/C=C2\C(=O)Nc3ccc(CCC(N)=O)cc32)c1C` [Compound 67], in assay [3], the “p-ACC level reduction across concentration range compared with sunitinib” value was “significant improvements in p-ACC level reduction with respect to sunitinib at both 3.125 mM and 12.5 mM”.

In the case of `CCN(CC)CCNC(=O)c1c(C)[nH]c(/C=C2\C(=O)N(C)c3ccc(F)cc32)c1C` [Compound No. 1, (Z)—N-(2-(Diethylamino)ethyl)-5-((5-fluoro-1-methyl-2-oxoindolin-3-ylidene)methyl)-2,4-dimethyl-1H-pyrrole-3-carboxamide], the “AMPK(α1) % inhibition at 20 μM” value in assay [1] (at 20 μM) worked out at 40%. The “AMPK(α2) % inhibition at 10 μM” value in [2] (at 10 μM) is reported as 17%. For the same compound, in assay [3], the “Relative p-ACC(Ser79) level” value is 97.1 % of control. Also, the EC50 in [4] was 6.79 ± 0.15 µM; in assay [5], 11.8 ± 0.78 µM; in [6] (read-out: EC50 CellTox Green 24 h, 24 h) it was 12.1 ± 0.91 µM; in [6] (setting [11]), 6.91 ± 0.06 µM.

`CCN(CC)CCNC(=O)c1c(C)[nH]c(/C=C2\C(=O)Nc3ccc(CCO)cc32)c1C` [Compound 65]: the “p-ACC level reduction across concentration range compared with sunitinib” value in [3] is “improvements in cellular AMPK inhibition over sunitinib at all concentrations apart from 50 μM”.

With `CNC(=O)c1ccccc1Oc1nc(Nc2cc(OC)c(OC)c(OC)c2)ncc1Br` [SBI-0206965], in [10], the IC50 was 0.4 µM.
